The values below come from patent publication US6153740A, “cDNA encoding nucleoside transporter” (University of Alberta, priority 1997, dated 2000).

Where two headings read alike, the source gives them in different places. Bounds are passed on as bounds.

One may read the Km as the concentration of substrate that gives half-maximal velocity. The term IC50 denotes the concentration needed to halve the response being measured. The low end stands for higher potency, the high end for lower potency. Usually inhibition stands for the change of the read-out against control, counted positive when it falls.

Series [1] has as its target T1, hCNT1b (Homo sapiens, UniProt O00337).
T1 sequence (O00337 2-649 V189I/N409S/D521N): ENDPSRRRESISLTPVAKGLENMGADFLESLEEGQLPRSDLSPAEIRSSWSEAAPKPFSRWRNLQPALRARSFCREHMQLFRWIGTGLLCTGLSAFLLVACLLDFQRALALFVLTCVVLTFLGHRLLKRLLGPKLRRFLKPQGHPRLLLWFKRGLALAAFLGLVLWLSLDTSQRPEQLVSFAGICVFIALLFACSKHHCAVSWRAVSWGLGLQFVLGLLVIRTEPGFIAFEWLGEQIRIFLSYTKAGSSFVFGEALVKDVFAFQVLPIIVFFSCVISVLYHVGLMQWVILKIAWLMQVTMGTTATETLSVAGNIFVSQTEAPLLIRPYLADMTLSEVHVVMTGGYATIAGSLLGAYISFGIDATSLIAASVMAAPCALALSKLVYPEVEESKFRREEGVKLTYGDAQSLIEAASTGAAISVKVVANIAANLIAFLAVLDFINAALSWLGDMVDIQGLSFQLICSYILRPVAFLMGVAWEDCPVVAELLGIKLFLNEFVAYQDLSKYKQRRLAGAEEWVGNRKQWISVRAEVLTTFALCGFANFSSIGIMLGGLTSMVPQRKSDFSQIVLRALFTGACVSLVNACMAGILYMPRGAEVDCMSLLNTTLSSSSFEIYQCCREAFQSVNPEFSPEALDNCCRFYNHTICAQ
The series is described as follows: inhibition of hCNT1b-mediated influx of [3H]uridine in Xenopus oocytes. It counts as cell-based. Conditions: uridine 10 μM. The source says: H2 O, water-injected oocytes.

A further series deals with rat jejunum. The series is described as follows: uptake of [3H]AZT by rat jejunum in vivo.
Series [2] has as its system human erythrocyte es transporter. Conditions: cited from earlier work.
The subject of a further series is cit transporter. Conditions: Terasaki et al, 1993; cited from earlier work.
In series [3] the target is T2, CNT1 (Rattus norvegicus, UniProt Q62674).
T2 sequence (Q62674 1-648): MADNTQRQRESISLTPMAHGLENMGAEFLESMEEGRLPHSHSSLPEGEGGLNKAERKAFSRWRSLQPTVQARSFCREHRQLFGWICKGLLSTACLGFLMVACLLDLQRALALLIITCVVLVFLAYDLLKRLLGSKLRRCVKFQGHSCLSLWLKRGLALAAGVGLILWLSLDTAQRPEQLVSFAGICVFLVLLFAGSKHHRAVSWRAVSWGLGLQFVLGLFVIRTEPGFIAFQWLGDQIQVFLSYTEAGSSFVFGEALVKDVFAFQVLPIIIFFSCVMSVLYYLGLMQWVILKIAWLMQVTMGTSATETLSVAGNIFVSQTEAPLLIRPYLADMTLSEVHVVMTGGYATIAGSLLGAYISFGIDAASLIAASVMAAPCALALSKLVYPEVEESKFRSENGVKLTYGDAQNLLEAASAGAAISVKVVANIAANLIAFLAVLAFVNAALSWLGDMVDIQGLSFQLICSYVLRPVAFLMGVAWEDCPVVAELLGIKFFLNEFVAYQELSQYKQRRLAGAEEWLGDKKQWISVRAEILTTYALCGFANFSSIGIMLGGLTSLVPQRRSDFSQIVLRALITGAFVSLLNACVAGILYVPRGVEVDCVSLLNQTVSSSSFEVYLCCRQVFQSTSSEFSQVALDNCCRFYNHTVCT
Description: uptake/influx of radiolabelled nucleosides in Xenopus oocytes injected with pQQH1 (rat CNT1) cRNA. It counts as cell-based. Conditions: for Vmax: rat CNT1, permeant = labelled substance. On the procedure: (§1) Oocytes were injected with water or RNA transcribed in vitro from the nucleoside transporter cDNA (pQQH1). […] For panels c and d, the permeant concentration was 10 μM and competing nonradioactive nucleosides were present at a concentration of 1 mM.
Oocytes injected with water or in vitro transcribed RNA from pQQH1 were incubated with radiolabeled permanent (10 μM) for 30 min (open columns) or 1 h (hatched columns) at 20° C. Each value represents the mean ±S. E. of 8-10 ooctyes.
(§2) Remaining template was removed by digestion with RQ1 DNase. Oocytes were treated with collagenase to remove follicular layers (Huang et al, 1993) and injected with 10 ng of pQQH1 cRNA or water. […] At the end of the incubation, extracellular label was removed by six rapid ice-cold washes in the appropriate transport buffer. Individual oocytes were dissolved in 5% SDS for quantitation of oocyte-associated ^3 H by liquid scintillation counting (LS 6000 IC, Beckman).

The target of series [4] is T2, CNT1. The series is described as follows: inhibition of CNT1-mediated nucleoside (uridine, AZT, ddC) transport in Xenopus oocytes. Type of series: cell-based. On the procedure:
as §1, §2

The target of series [5] is T3, hCNT1a (Homo sapiens, UniProt O00337).
T3 sequence (O00337 with tags, fused parts or gaps E34G/INS140V): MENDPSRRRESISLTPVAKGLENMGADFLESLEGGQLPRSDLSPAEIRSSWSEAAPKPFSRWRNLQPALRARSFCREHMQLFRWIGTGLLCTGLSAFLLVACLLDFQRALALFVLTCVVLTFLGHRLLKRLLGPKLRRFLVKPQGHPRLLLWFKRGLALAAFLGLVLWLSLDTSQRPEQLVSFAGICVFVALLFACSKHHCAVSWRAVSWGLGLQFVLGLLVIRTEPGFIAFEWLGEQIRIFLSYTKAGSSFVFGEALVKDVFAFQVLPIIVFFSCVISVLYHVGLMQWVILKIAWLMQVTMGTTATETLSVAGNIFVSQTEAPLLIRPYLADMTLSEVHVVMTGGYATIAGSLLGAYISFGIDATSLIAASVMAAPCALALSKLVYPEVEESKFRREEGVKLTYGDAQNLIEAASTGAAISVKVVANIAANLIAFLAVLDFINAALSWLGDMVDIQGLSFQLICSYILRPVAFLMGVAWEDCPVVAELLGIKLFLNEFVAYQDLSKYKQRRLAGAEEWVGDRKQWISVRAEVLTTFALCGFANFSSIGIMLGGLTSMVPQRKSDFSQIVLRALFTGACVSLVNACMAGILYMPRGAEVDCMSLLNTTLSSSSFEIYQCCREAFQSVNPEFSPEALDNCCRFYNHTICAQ
Description: influx of radiolabelled nucleosides in Xenopus oocytes injected with hCNT1a RNA transcript.

A further series deals with human erythrocytes. Particulars: cited from earlier work.
For series [6] the following is noted: cited from earlier work.
The target in series [7] is T3, hCNT1a. The series is described as follows: inhibition of hCNT1a-mediated influx of [3H]uridine in Xenopus oocytes. Particulars: uridine 10 μM.
Series [8] addresses T2, CNT1. Conditions: Yao et al. in press; cited from earlier work.
The test system of another series is kidney. Conditions: humans, mice (adenosine also rat); cited from earlier work.
Series [9] deals with T1, hCNT1b. The series is described as follows: influx of radiolabelled nucleosides in Xenopus oocytes injected with hCNT1b RNA transcript. Type of series: cell-based. Conditions: hCNT1b.
Substrate in series [10]: Nc1ccn([C@H]2CC[C@@H](CO)O2)c(=O)n1
The series is described as follows: uptake/influx of radiolabelled nucleosides in Xenopus oocytes injected with pQQH1 (rat CNT1) cRNA. It counts as cell-based. Conditions: other: rate versus concentration studies, pH 7.5, 20.0 °C.

Substrate in series [11]: O=c1ccn([C@@H]2O[C@H](CO)[C@@H](O)[C@H]2O)c(=O)[nH]1
Description: cells, lysate or membranes. Particulars: other: rat CNT1, 20° C., pH 7.5.

The mark [12] stands for this setting: 10 μM, same experiment as adenosine (FIG. 14A).

With `Cc1cn([C@H]2C[C@H](N=[N+]=[N-])[C@@H](CO)O2)c(=O)[nH]c1=O` [AZT, 3'-azido-3'-deoxythymidine], the “inhibition of hCNT1b-mediated influx of uridine” value against hCNT1b [1] (analog 5 mM (FIG. 12B)) is given as “inhibited”. Further, the “uptake of [3H]AZT by rat jejunum in vivo” value with rat jejunum was “Na^+ -dependent”. Further, the “transport by equilibrative nucleoside transporters” value in [2] is “not transported”. In the series on cit transporter, the “cit-mediated uridine transport, inhibition” value is “inhibited”. Moreover, the CNT1-mediated uptake/transport result on CNT1 [3] (10 μM permeant) is on record as “large increases”. Also, on CNT1 [3] (10 μM permeant (FIG. 14)), the “mediated flux, rCNT1” value came to 4.10±0.34 pmol/oocyte.10 min^-1. Besides, on CNT1 [3] (10 μM, 10-min flux), the “Na+ dependence of initial rate of expressed uptake” value came out at 77%. Also, the Vmax at CNT1 [3] is on record as 28 pmol/oocyte.min^-1. Further, the Km at CNT1 [3] (rate versus concentration studies, rat CNT1, read-out: apparent Km) came to 490 µM. Further, the 50% inhibitory concentration (IC50) on CNT1 [4] was < 1 mM. In addition, the “transport by hCNT1” value at hCNT1a [5] is recorded as “transport”. The “mediated flux, hCNT1a” value on hCNT1a [5] (10 μM permeant (FIG. 14)) is on record as 4.79±0.41 pmol/oocyte.10 min^-1. In addition, the “rate of entry into human erythrocytes relative to those of thymidine and cytidine” value in the series on human erythrocytes was < 2%. In [6] (Good et al. 1990, Griffiths et al. 1992), the “excretion in the urine” value is “excreted in the urine either unchanged or as the glucuronide conjugate”. Besides, the “absorption by the gastrointestinal systems of humans and rats” value in series [6] (oral) is “absorbed efficiently”. In addition, on hCNT1a [7] (analog 5 mM (FIG. 12A)), the “inhibition of hCNT1a-mediated influx of uridine” value is on record as “inhibited”. Besides, the “transport by recombinant rCNT1 in oocytes” value at CNT1 [8] is “transports AZT”. Moreover, the net renal handling result in the series with kidney is “net renal secretion”.

On to `O=c1ccn([C@@H]2O[C@H](CO)[C@@H](O)[C@H]2O)c(=O)[nH]1` [uridine], for which the “inhibition of uridine fluxes, hCNT1b” value at hCNT1b [1] (competitor 1 mM (FIG. 12B)) is “inhibited”. In addition, in the series on rat jejunum, the “inhibition of [3H]AZT uptake by rat jejunum in vivo” value was “inhibited by uridine”. The “intracellular concentration higher than that in the extracellular medium” value at CNT1 [3] (10 μM uridine, 30 min) was “approximately 6 -fold”. Further, at CNT1 [3] (10 μM, 20° C., 30 min, pQQH1 cRNA-injected), the “cellular content of uridine after 30 min” value is listed as 64 pmol/oocyte. In addition, the “uridine flux, rCNT1” value on CNT1 [3] (setting [12]) came out at 5.60±0.38 pmol/oocyte.min^-1. Further, the “effect of substitution of Cl- by gluconate on flux” value at CNT1 [3] (100 mM NaCl or sodium gluconate, 10 mM HEPES, pH 7.6) was “unaffected”. The “Vmax (uridine transport)” value on CNT1 [3] (rat CNT1) amounted to 21 pmol/oocyte-min^-1. For the same molecule, on CNT1 [3], the Vmax was found to be 21 pmol/oocyte.min^-1. The inhibition at 1000 µM on CNT1 [4] (read-out: inhibition of expressed AZT uptake) and on CNT1 [4] (read-out: inhibition of expressed ddC uptake) was > 95% in each case. For the same molecule, on hCNT1a [5] (10 μM, 100 mM NaCl (FIG. 9)), the “uridine influx in Na+-medium” value was determined as 4.88±0.70 pmol/oocyte.min^-1. Moreover, the “uridine influx in choline-medium” value on hCNT1a [5] (10 μM, 100 mM choline chloride (FIG. 9)) stood at 0.18±0.01 pmol/oocyte.min^-1. Moreover, on hCNT1a [5] (setting [12]), the “uridine flux, hCNT1a” value came to 3.68±0.46 pmol/oocyte.min^-1. For the same molecule, at hCNT1a [5] (50 μM uridine (FIG. 11)), the “Na+-independent uridine influx” value amounted to 0.81±0.14 pmol/oocyte.min^-1. In addition, the results for the “Vmax, influx of uridine” value at hCNT1a [5] (hCNT1a) and at hCNT1b [9] were 26±1 pmol/oocyte.min^-1 and 22±2 pmol/oocyte.min^-1, respectively. At hCNT1a [7] (competitor 1 mM (FIG. 12A), guanosine also in FIG. 13), the “inhibition of uridine fluxes, hCNT1a” value is listed as “inhibited”. Also, the Km at hCNT1b [9] (read-out: apparent Km, influx of uridine) came to 37 ± 10 µM.

B1: CNT1 (Rattus norvegicus) (protein)
chain: MADNTQRQRESISLTPMAHGLENMGAEFLESMEEGRLPHSHSSLPEGEGGLNKAERKAFSRWRSLQPTVQARSFCREHRQLFGWICKGLLSTACLGFLMVACLLDLQRALALLIITCVVLVFLAYDLLKRLLGSKLRRCVKFQGHSCLSLWLKRGLALAAGVGLILWLSLDTAQRPEQLVSFAGICVFLVLLFAGSKHHRAVSWRAVSWGLGLQFVLGLFVIRTEPGFIAFQWLGDQIQVFLSYTEAGSSFVFGEALVKDVFAFQVLPIIIFFSCVMSVLYYLGLMQWVILKIAWLMQVTMGTSATETLSVAGNIFVSQTEAPLLIRPYLADMTLSEVHVVMTGGYATIAGSLLGAYISFGIDAASLIAASVMAAPCALALSKLVYPEVEESKFRSENGVKLTYGDAQNLLEAASAGAAISVKVVANIAANLIAFLAVLAFVNAALSWLGDMVDIQGLSFQLICSYVLRPVAFLMGVAWEDCPVVAELLGIKFFLNEFVAYQELSQYKQRRLAGAEEWLGDKKQWISVRAEILTTYALCGFANFSSIGIMLGGLTSLVPQRRSDFSQIVLRALITGAFVSLLNACVAGILYVPRGVEVDCVSLLNQTVSSSSFEVYLCCRQVFQSTSSEFSQVALDNCCRFYNHTVCT
notes: identified as pQQH1, has an open reading frame encoding a 648-amino acid protein; expressed in transfected cells; host or cells: Xenopus oocytes injected with pQQH1 cRNA
In the case of B1, the results for the Km in series [10] and in series [11] were 0.51 mM and 37 µM, respectively.
